How the values were obtained:
normal pressure monkeys [1] = experiment: Intraocular pressure lowering, concomitant administration of omidenepag isopropyl and netarsudil (Example 2); type: in vivo, cynomolgus monkey; settings: male cynomolgus monkeys, average of 8, eye drop 20 μL: omidenepag isopropyl 0.0006 w/v%, netarsudil 0.01 w/v% (dimesylate)
Description: (§1) In order to examine usefulness of the combination of omidenepag or an ester thereof or a salt thereof and netarsudil, the effect of lowering an intraocular pressure when omidenepag isopropyl and netarsudil were administered concomitantly to experimental animals (normal pressure monkeys) was investigated.
(1) Preparation of Base of Omidenepag Isopropyl Solution • (Preparation of Compound Solution to be Tested) […]
(2) Preparation of Omidenepag Isopropyl Solution
(§2) To purified water were added omidenepag isopropyl, polyoxyl 35 castor oil, glycerin, sodium citrate, sodium edetate and benzalkonium chloride to dissolve them, and after adjusting pH, purified water was added to adjust the whole amount to prepare a 0.0006 w/v% omidenepag isopropyl solution.
(3) Preparation of Netarsudil Solution
Dimesylate of netarsudil was dissolved in a physiological saline solution containing a solubilizing agent, and then, a netarsudil solution having a desired concentration was prepared by using a commonly used method.
(§3) An effect of lowering an intraocular pressure when omidenepag isopropyl and netarsudil were administered concomitantly was investigated. As a comparative subject, an effect of lowering an intraocular pressure when omidenepag isopropyl or netarsudil was administered alone was also investigated. As a control, the base of the omidenepag isopropyl solution and the base of the netarsudil solution were administered.
Omidenepag isopropyl solution: 0.0006w/v% omidenepag isopropyl solution (volume of eye dropped: 20 μL)
Netarsudil solution: 0.01 w/v% netarsudil solution (volume of eye dropped: 20 μL)
Experimental animal: cynomolgus monkey (sex: male, 8 monkeys per a group)
[1] Contamitant Administration of Omidenepag Isopropyl and Netarsudil
(§4) (1) A drop of 0.4% oxybuprocaine hydrochloride eye drop (trade name: Benoxil (Registered Trademark) eye drops 0.4%) was applied to one eye of an experimental animal and local anesthesia was conducted.
(§5) (2) Immediately before administration of a compound solution to be tested, an intraocular pressure was measured and the value was made an initial intraocular pressure.
(3) The omidenepag isopropyl solution was applied to one eye of the experimental animal (the contralateral eye was untreated). After a short time (after about 5 minutes), the netarsudil solution was applied to the same eye.
(4) After 2 hours, 4 hours, 6 hours, 8 hours and 24 hours from applying the omidenepag isopropyl solution to the eye, one drop of 0.4% oxybuprocaine hydrochloride eye drop was applied to the eye to be measured for the intraocular pressure respectively, and after local anesthesia, the intraocular pressure was measured. Also, the intraocular pressure was measured each three times, and the average value was shown in the results. […]
The test was carried out in the same manner as the above-mentioned concomitant administration test except for changing the omidenepag isopropyl solution to the base of the omidenepag isopropyl solution. […]
The changes in the intraocular pressure values are shown by an average value±SEM of the difference from the value (0 hour) before administration of eight monkeys in each group with regard to each measurement time point of each individual. Here, the significance was evaluated by the Dunnett-Hsu test, and the significance level with respect to the control group was shown as *: p<0.05, **: p<0.01, and ***: p<0.001, the significance level with respect to the omidenepag isopropyl administered group was shown as †: p<0.05, ††: p<0.01, and †††: p<0.001, and the significance level with respect to the netarsudil administered group was shown as ♯♯: p<0.01, and ♯♯♯p<0.001.

normal pressure monkeys [2] = experiment: Intraocular pressure lowering, concomitant administration of omidenepag isopropyl and ripasudil (Example 1); type: in vivo, cynomolgus monkey; settings: male cynomolgus monkeys, average of 7, eye drop 20 μL: omidenepag isopropyl 0.0006 w/v%, ripasudil eye drops 0.4%
Description: as §1, with “ripasudil,” for “netarsudil,”, “ripasudil” for “netarsudil”
To purified water were added polyoxyl 35 castor oil, glycerin, sodium citrate, sodium edetate and benzalkonium chloride to dissolve them, and after adjusting pH, purified water was added to adjust the whole amount.
as §2
Commercially available physiological saline solution (trade name: Otsuka Normal Saline, obtained from Otsuka Pharmaceutical Factory, Inc.) was used as it was.
Commercially available ripasudil eye drop was used as it was.
as §3, with “ripasudil” for “netarsudil”, “base” for “base of the omidenepag isopropyl solution”, “physiological saline” for “base of the netarsudil”
Omidenepag isopropyl solution: 0.0006w/v% omidenepag isopropyl solution (volume of eye dropped: 20 μL) Ripasudil solution: ripasudil eye drop (trade name: Glanatec (Registered Trademark) eye drops 0.4%, volume of eye dropped: 20 μL)
Experimental animal: cynomolgus monkey (sex: male, 7 monkeys per a group)
[1] Concomitant Administration of Omidenepag Isopropyl and Ripasudil
as §4, §5
(3) The omidenepag isopropyl solution was applied to one eye of the experimental animal (the contralateral eye was untreated). After a short time (after about 5 minutes), the ripasudil solution was applied to the same eye.
(4) After 2 hours, 4 hours, 6 hours, 8 hours and 24 hours from applying the omidenepag isopropyl solution to the eye, one drop of 0.4% oxybuprocaine hydrochloride eye drop was applied to the eye to be measured for the intraocular pressure respectively, and after local anesthesia, the intraocular pressure was measured. Also, the intraocular pressure was measured each three times, and the average value was shown in the results.
[2] Single Administration of Omidenepag Isopropyl
The test was carried out in the same manner as the above-mentioned concomitant administration test except for changing the ripasudil solution to the physiological saline solution.
[3] Single Administration of Ripasudil
The test was carried out in the same manner as the above-mentioned concomitant administration test except for changing the omidenepag isopropyl solution to the base.
The test was carried out in the same manner as the above-mentioned concomitant administration test except for changing the omidenepag isopropyl solution to the base and changing the ripasudil solution to the physiological saline solution.
The changes in the intraocular pressure values are shown by an average value±SEM of the difference from the value (0 hour) before administration of seven monkeys in each group with regard to each measurement time point of each individual. […]

Row | SMILES | change in intraocular pressure value (difference from value before administration) (normal pressure monkeys [1]; 2 hours after dropping) | change in intraocular pressure value (difference from value before administration) (normal pressure monkeys [1]; 4 hours after dropping) | change in intraocular pressure value (difference from value before administration) (normal pressure monkeys [1]; 6 hours after dropping) | change in intraocular pressure value (difference from value before administration) (normal pressure monkeys [1]; 8 hours after dropping) | change in intraocular pressure value (difference from value before administration) (normal pressure monkeys [1]; 24 hours after dropping) | change in intraocular pressure value (difference from value before administration) (normal pressure monkeys [2]; 2 hours after dropping) | change in intraocular pressure value (difference from value before administration) (normal pressure monkeys [2]; 4 hours after dropping) | change in intraocular pressure value (difference from value before administration) (normal pressure monkeys [2]; 6 hours after dropping) | change in intraocular pressure value (difference from value before administration) (normal pressure monkeys [2]; 8 hours after dropping) | change in intraocular pressure value (difference from value before administration) (normal pressure monkeys [2]; 24 hours after dropping)
1 | Cc1ccc(C(=O)OCc2ccc([C@@H](CN)C(=O)Nc3ccc4cnccc4c3)cc2)c(C)c1 [Netarsudil, [4-[(1S)-1-(aminomethyl)-2-(isoquinolin-6-ylamino)-2-oxoethyl]phenyl]methyl 2,4-dimethylbenzoate] | −1.5 | −2.3 | −3.0 | −3.0 | −0.8 |  |  |  |  | 
2 | CC(C)OC(=O)CNc1cccc(CN(Cc2ccc(-n3cccn3)cc2)S(=O)(=O)c2cccnc2)n1 [Omidenepag isopropyl, isopropyl (6-{[4-(pyrazol-1-yl)benzyl](pyridin-3-ylsulfonyl)aminomethyl}pyridin-2-ylamino)acetate] | −0.9 | −2.5 | −2.5 | −2.3 | −0.3 | 0.0 | −1.2 | −0.7 | −0.6 | −0.1
3 | C[C@H]1CNCCCN1S(=O)(=O)c1cccc2cncc(F)c12 [Ripasudil, (S)-(-)-1-(4-fluoro-5-isoquinolinesulfonyl) 2-methyl-1,4-homopiperazine] |  |  |  |  |  | −2.7 | −1.6 | −1.6 | −0.8 | 0.0

From US20210106569A1, “OMIDENEPAG COMBINATION” (priority 2017, published 2021)
